Results on 13 compounds are retold here after patent US12180193B2, “Accelerating fibrosarcoma protein degrading compounds and associated methods of use” (Arvinas Operations, Inc., priority 2020, dated 2024).

Molecules are shown by their SMILES.

One test concerns the target T1, BRAF V600E (Homo sapiens, UniProt P15056, V600E).
T1 construct: expressed in transfected cells
Nature of the test: Cellular assay of target protein degradation, T-Rex 293 cells stably transfected with HA-BRAF_V600E (HA immunofluorescence, high content imaging). The test is classed as cell-based. The following applies: T-Rex 293 HA-BRAF V600E; for DC50: half maximal degradation, read-out: BRaf V600E DC50; for Dmax: maximum degradation observed. The procedure, abridged:
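Cells are plated with 1 ng/mL doxycycline and grown 24 h. Compound is then added (final 1 μM–0.1 nM, 0.1% DMSO) for another 24 h at 37 °C, followed by fixing, HA immunostaining and imaging to obtain DC50 and Dmax.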

The next test deals with T2, BRAF G466V (Homo sapiens, UniProt P15056, G466V).
T2 construct: expressed in transfected cells
Nature of the test: Cellular assay of target protein degradation, T-Rex 293 cells stably transfected with HA-BRAF G466V (HA immunofluorescence, high content imaging). The test is classed as cell-based. The following applies: T-Rex 293 HA-BRAF G466V; for DC50: half maximal degradation, read-out: BRaf G466V DC50; for Dmax: maximum degradation observed. A digest of the protocol: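 Read-out is HA immunofluorescence by high content imaging, with Hoechst and phalloidin co-staining, giving DC50 and Dmax as a percentage of control. Compound exposure lasts 24 hours at 37° C over 30 nM to 3 pM in 0.1% DMSO, with doxycycline-induced HA-BRAF G466V.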

T1 sequence (P15056 whole entry V600E): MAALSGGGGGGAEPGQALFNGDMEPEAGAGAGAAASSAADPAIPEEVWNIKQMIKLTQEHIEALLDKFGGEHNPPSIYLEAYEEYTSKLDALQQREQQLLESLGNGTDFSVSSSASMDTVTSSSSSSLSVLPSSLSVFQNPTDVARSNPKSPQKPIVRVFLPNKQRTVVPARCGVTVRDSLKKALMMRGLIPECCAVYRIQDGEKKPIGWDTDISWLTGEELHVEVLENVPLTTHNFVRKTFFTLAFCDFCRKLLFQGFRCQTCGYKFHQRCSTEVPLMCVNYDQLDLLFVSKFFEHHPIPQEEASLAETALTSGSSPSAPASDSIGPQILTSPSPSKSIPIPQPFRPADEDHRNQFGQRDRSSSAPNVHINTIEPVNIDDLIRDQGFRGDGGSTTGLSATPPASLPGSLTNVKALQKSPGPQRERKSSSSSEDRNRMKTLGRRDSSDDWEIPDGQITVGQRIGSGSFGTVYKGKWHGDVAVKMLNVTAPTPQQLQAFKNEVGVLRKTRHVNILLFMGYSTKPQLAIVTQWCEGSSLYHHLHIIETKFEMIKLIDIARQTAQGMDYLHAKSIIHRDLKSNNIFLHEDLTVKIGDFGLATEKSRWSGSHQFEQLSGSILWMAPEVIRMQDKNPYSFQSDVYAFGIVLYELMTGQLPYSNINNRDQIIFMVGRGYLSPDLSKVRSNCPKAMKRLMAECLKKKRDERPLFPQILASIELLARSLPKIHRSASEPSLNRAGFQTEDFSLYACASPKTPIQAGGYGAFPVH
T2 sequence (P15056 whole entry G466V): as the sequence (P15056 whole entry V600E) above, with G466V, E600V counted along it

As for `O=C1CC[C@@H](N2Cc3cc(C[C@@H](O)CN4CCN(c5ccc(-c6cnc7[nH]cc(C(=O)c8c(F)ccc(NS(=O)(=O)N9CC[C@@H](F)C9)c8F)c7c6)cc5)CC4)ccc3C2=O)C(=O)N1` [Compound 73, (3R)-N-{3-[5-(4-{4-[(2R)-3-{2-[(3R)-2,6-dioxopiperidin-3-yl]-1-oxo-2,3-dihydro-1H-isoindol-5-yl}-2-hydroxypropyl]piperazin-1-yl}phenyl)-1H-pyrrolo[2,3-b]pyridine-3-carbonyl]-2,4-difluorophenyl}-3-fluoropyrrolidine-1-sulfonamide], on BRAF V600E, the half-maximal degradation concentration (DC50) lay within 5 to 50 nM and the Dmax is 35 to 70%. Besides, on BRAF G466V, the DC50 lay within 1 to 10 nM and the greatest degradation seen (Dmax) was more than 70%.

On to `O=C1CC[C@H](N2Cc3cc(C[C@H](O)CN4CCN(c5ccc(-c6cnc7[nH]cc(C(=O)c8c(F)ccc(NS(=O)(=O)N9CC[C@@H](F)C9)c8F)c7c6)cc5)CC4)ccc3C2=O)C(=O)N1` [Compound 74], for which, at BRAF V600E, the DC50 lay within 5 to 50 nM and the Dmax lay within 35 to 70%. Further, at BRAF G466V, the 50% degradation concentration (DC50) lay in the range of 1 to 10 nM and the Dmax was more than 70%.

Regarding `O=C1CC[C@@H](N2Cc3cc(C[C@H](O)CN4CCN(c5ccc(-c6cnc7[nH]cc(C(=O)c8c(F)ccc(NS(=O)(=O)N9CC[C@@H](F)C9)c8F)c7c6)cc5)CC4)ccc3C2=O)C(=O)N1` [Compound 75, (3R)-N-{3-[5-(4-{4-[(2S)-3-{2-[(3R)-2,6-dioxopiperidin-3-yl]-1-oxo-2,3-dihydro-1H-isoindol-5-yl}-2-hydroxypropyl]piperazin-1-yl}phenyl)-1H-pyrrolo[2,3-b]pyridine-3-carbonyl]-2,4-difluorophenyl}-3-fluoropyrrolidine-1-sulfonamide], on BRAF V600E, the half-maximal degradation concentration (DC50) was less than 5 nM and the Dmax fell in the range of 35 to 70%. On BRAF G466V, the half-maximal degradation concentration (DC50) is 1 to 10 nM and the maximal degradation (Dmax) is more than 70%.

On to `O=C1CC[C@H](N2Cc3cc(CN4C[C@@H]5CN(c6ccc(-c7cnc8[nH]cc(C(=O)c9c(F)ccc(NS(=O)(=O)N%10CC[C@@H](F)C%10)c9F)c8c7)cc6)C[C@@H]5C4)ccc3C2=O)C(=O)N1` [Compound 76, (3R)-N-[3-(5-{4-[(3aR,6aS)-5-({2-[(3S)-2,6-dioxopiperidin-3-yl]-1-oxo-2,3-dihydro-1H-isoindol-5-yl}methyl)-octahydropyrrolo[3,4-c]pyrrol-2-yl]phenyl}-1H-pyrrolo[2,3-b]pyridine-3-carbonyl)-2,4-difluorophenyl]-3-fluoropyrrolidine-1-sulfonamide], for which, on BRAF V600E, the 50% degradation concentration (DC50) lay within 5 to 50 nM and the Dmax was in the range of 35 to 70%. Also, the DC50 at BRAF G466V is more than 30 nM.

`O=C1CC[C@@H](N2Cc3cc(CN4C[C@@H]5CN(c6ccc(-c7cnc8[nH]cc(C(=O)c9c(F)ccc(NS(=O)(=O)N%10CC[C@@H](F)C%10)c9F)c8c7)cc6)C[C@@H]5C4)ccc3C2=O)C(=O)N1` [Compound 77, (3R)-N-[3-(5-{4-[(3aR,6aS)-5-({2-[(3R)-2,6-dioxopiperidin-3-yl]-1-oxo-2,3-dihydro-1H-isoindol-5-yl}methyl)-octahydropyrrolo[3,4-c]pyrrol-2-yl]phenyl}-1H-pyrrolo[2,3-b]pyridine-3-carbonyl)-2,4-difluorophenyl]-3-fluoropyrrolidine-1-sulfonamide]: the DC50 on BRAF V600E was 5 to 50 nM; at BRAF G466V, more than 30 nM. Further, the Dmax at BRAF V600E lay within 35 to 70%.

For `O=C1CCC(N2Cc3cc(CN4CCN(c5ccc(-c6cnc7[nH]cc(C(=O)c8c(F)ccc(NS(=O)(=O)N9CC[C@@H](F)C9)c8F)c7c6)cc5)C[C@@H]4CO)ccc3C2=O)C(=O)N1` (stereo partly drawn) [Compound 78, (3R)-N-[3-(5-{4-[(3R)-4-{[2-(2,6-dioxopiperidin-3-yl)-1-oxo-2,3-dihydro-1H-isoindol-5-yl]methyl}-3-(hydroxymethyl)piperazin-1-yl]phenyl}-1H-pyrrolo [2,3-b]pyridine-3-carbonyl)-2,4-difluorophenyl]-3-fluoropyrrolidine-1-sulfonamide], on BRAF V600E, the DC50 was more than 500 nM and the Dmax is more than 70%. Moreover, the half-maximal degradation concentration (DC50) on BRAF G466V is more than 30 nM.

Regarding `COc1cc(N2CC(N3CCN(c4ccc(-c5cnc6[nH]cc(C(=O)c7c(F)ccc(NS(=O)(=O)N8CC[C@@H](F)C8)c7F)c6c5)cc4)CC3)C2)cc2c1C(=O)N(C1CCC(=O)NC1=O)C2` (stereo partly drawn) [Compound 79, (3R)-N-(3-{5-[4-(4-{1-[2-(2,6-dioxopiperidin-3-yl)-7-methoxy-1-oxo-2,3-dihydro-1H-isoindol-5-yl]azetidin-3-yl}piperazin-1-yl)phenyl]-1H-pyrrolo[2,3-b]pyridine-3-carbonyl}-2,4-difluorophenyl)-3-fluoropyrrolidine-1-sulfonamide], at BRAF V600E, the half-maximal degradation concentration (DC50) was in the range of 5 to 50 nM and the Dmax lay within 35 to 70%. For the same compound, the half-maximal degradation concentration (DC50) at BRAF G466V was more than 30 nM.

For the compound `O=C1CC[C@H](N2Cc3cc(OCCCN4CC5(C4)CN(c4ccc(-c6cnc7[nH]cc(C(=O)c8c(F)ccc(NS(=O)(=O)N9CC[C@@H](F)C9)c8F)c7c6)cc4)C5)ccc3C2=O)C(=O)N1` [Compound 80, (3R)-N-{3-[5-(4-{6-[3-({2-[(3S)-2,6-dioxopiperidin-3-yl]-1-oxo-2,3-dihydro-1H-isoindol-5-yl}oxy)propyl]-2,6-diazaspiro[3.3]heptan-2-yl}phenyl)-1H-pyrrolo[2,3-b]pyridine-3-carbonyl]-2,4-difluorophenyl}-3-fluoropyrrolidine-1-sulfonamide], the DC50 is less than 5 nM on BRAF V600E and 1 to 10 nM at BRAF G466V. Also, the greatest degradation seen (Dmax) at BRAF V600E was 35 to 70%; on BRAF G466V, more than 70%.

In the case of `O=C1CC[C@@H](N2Cc3cc(OCCCN4CC5(C4)CN(c4ccc(-c6cnc7[nH]cc(C(=O)c8c(F)ccc(NS(=O)(=O)N9CC[C@@H](F)C9)c8F)c7c6)cc4)C5)ccc3C2=O)C(=O)N1` [Compound 81, (3R)-N-{3-[5-(4-{6-[3-({2-[(3R)-2,6-dioxopiperidin-3-yl]-1-oxo-2,3-dihydro-1H-isoindol-5-yl}oxy)propyl]-2,6-diazaspiro[3.3]heptan-2-yl}phenyl)-1H-pyrrolo[2,3-b]pyridine-3-carbonyl]-2,4-difluorophenyl}-3-fluoropyrrolidine-1-sulfonamide], at BRAF V600E, the half-maximal degradation concentration (DC50) lay within 5 to 50 nM and the Dmax was 35 to 70%. Moreover, on BRAF G466V, the DC50 was 1 to 10 nM and the Dmax is more than 70%.

Regarding `O=C1CC[C@H](N2Cc3cc(C[C@@H](O)CN4CCN(c5ccc(-c6cnc7[nH]cc(C(=O)c8c(F)ccc(NS(=O)(=O)N9CC[C@@H](F)C9)c8F)c7c6)cc5)CC4)ccc3C2=O)C(=O)N1` [Compound 82, (3R)-N-{3-[5-(4-{4-[(2R)-3-{2-[(3S)-2,6-dioxopiperidin-3-yl]-1-oxo-2,3-dihydro-1H-isoindol-5-yl}-2-hydroxypropyl]piperazin-1-yl}phenyl)-1H-pyrrolo[2,3-b]pyridine-3-carbonyl]-2,4-difluorophenyl}-3-fluoropyrrolidine-1-sulfonamide], at BRAF V600E, the DC50 is 5 to 50 nM and the Dmax fell in the range of 35 to 70%. Besides, at BRAF G466V, the 50% degradation concentration (DC50) is more than 30 nM.

Turning to `O=C1CC[C@H](N2Cc3cc(C4CN(CC5CCN(c6ccc(-c7cnc8[nH]cc(C(=O)c9c(F)ccc(NS(=O)(=O)N%10CC[C@@H](F)C%10)c9F)c8c7)cc6)CC5)C4)ccc3C2=O)C(=O)N1` [Compound 83, (3R)-N-{3-[5-(4-{4-[(3-{2-[(3S)-2,6-dioxopiperidin-3-yl]-1-oxo-2,3-dihydro-1H-isoindol-5-yl}azetidin-1-yl)methyl]piperidin-1-yl}phenyl)-1H-pyrrolo[2,3-b]pyridine-3-carbonyl]-2,4-difluorophenyl}-3-fluoropyrrolidine-1-sulfonamide], on BRAF V600E, the DC50 lay within 50 to 500 nM and the Dmax was more than 70%. For the same compound, at BRAF G466V, the DC50 is less than 1 nM and the Dmax was 35 to 70%.

Turning to `O=C1CC[C@@H](N2Cc3cc(C4CN(CC5CCN(c6ccc(-c7cnc8[nH]cc(C(=O)c9c(F)ccc(NS(=O)(=O)N%10CC[C@@H](F)C%10)c9F)c8c7)cc6)CC5)C4)ccc3C2=O)C(=O)N1` [Compound 84, (3R)-N-{3-[5-(4-{4-[(3-{2-[(3R)-2,6-dioxopiperidin-3-yl]-1-oxo-2,3-dihydro-1H-isoindol-5-yl}azetidin-1-yl)methyl]piperidin-1-yl}phenyl)-1H-pyrrolo[2,3-b]pyridine-3-carbonyl]-2,4-difluorophenyl}-3-fluoropyrrolidine-1-sulfonamide], the DC50 was 5 to 50 nM at BRAF V600E and less than 1 nM at BRAF G466V. Further, the Dmax at BRAF V600E was 35 to 70%; on BRAF G466V it was more than 70%.

For the compound `O=C1CC[C@H](N2Cc3cc(N4CC(CN5C[C@@H]6CN(c7ccc(-c8cnc9[nH]cc(C(=O)c%10c(F)ccc(NS(=O)(=O)N%11CC[C@@H](F)C%11)c%10F)c9c8)cc7)C[C@@H]6C5)C4)ccc3C2=O)C(=O)N1` [Compound 85, (3R)-N-[3-(5-{4-[(3aR,6aS)-5-[(1-{2-[(3S)-2,6-dioxopiperidin-3-yl]-1-oxo-2,3-dihydro-1H-isoindol-5-yl}azetidin-3-yl)methyl]-octahydropyrrolo[3,4-c]pyrrol-2-yl]phenyl}-1H-pyrrolo[2,3-b]pyridine-3-carbonyl)-2,4-difluorophenyl]-3-fluoropyrrolidine-1-sulfonamide], at BRAF V600E, the DC50 was less than 5 nM and the Dmax is 35 to 70%. Moreover, on BRAF G466V, the DC50 was 1 to 10 nM and the Dmax is more than 70%.
